Experimental findings from US5180742A, “Quinone derivatives, their production and use” (Takeda Chemical Industries, Ltd., priority 1984, dated 1993) are described below.

Data set [1] concerns ischemic convulsive seizure due to bilateral common carotid artery ligation in SHR rats. Description: Inhibitory action on induction of convulsive seizure in experimental cerebral infarction model of SHR rats. Format: in vivo, spontaneously hypertensive rats. The settings on record: control 151 ± 5. As to the method: Inhibitory Action on Induction of Convulsive Seizure in an Experimental Cerebral Infarction Model of Spontaneously Hypertensive Rats
Cerebral ischemia was induced by simultaneous ligation of bilateral common carotid arteries in male spontaneously hypertensive (SHR) rats (about 22 weeks of age) under light pentobarbital anesthesia. Thereafter, over about 4 hours, the behaviour was observed under conscious state.
Test drugs were orally administered as a gum arabic suspension 1 hour before the ligation of bilateral common carotid arteries under an unanesthetized condition.

In data set [2] the test system is PMA-stimulated release of O2^- in guinea pig peritoneal polymorphonuclear leukocytes. The data set is described as follows: PMA-stimulated release of O2- in guinea pig peritoneal polymorphonuclear leukocytes (chemiluminescence). Format: cell-based. As to the method:
Luminol (3-aminophthaloylhydrazine), 10 nmole, and phorbol myristate acetate (PMA), 10 ng, were added to guinea pig peritoneal polymorphonuclear leukocytes (1.5×10^4 cells) suspended in Hanks' balanced salt solution-HEPES buffer (pH 7.4). A total volume of the reaction mixture was 0.1 ml. The chemiluminescence resulted from release of superoxide (O2^-) during 30 sec was measured continuously for 10 min at 37° C. using a chemiluminometer analyzer (Packard Pico-Lite). A peak value of the chemiluminescence was compared as an index of the release of O2^-, and the chemiluminecence inhibitable by superoxide dismutase (300 μg/ml) was measured as 100%. Compound No. 50 was added immediately before the addition of PMA.

Another data set relates to mice of ICR breed. Type of data set: in vivo. The settings on record: 1000 mg/kg oral, male ICR mice, 7 days. An excerpt: Acute Toxicity Test in Mice (Acute Toxicity)
1000 Milligrams per kilogram of each set specimen was applied orally to groups of 5 five-weeks old male mice of ICR breed, and a number of dead animals observed for the 7-days period was counted.

For the molecule `CC1=C(C)C(=O)C(C(CCCCCC(=O)O)c2ccccc2)=C(C)C1=O` (stereo not shown) [Compound No. 50, 7-(3,5,6-trimethyl-1,4-benzoquinon-2-yl)-7-phenylheptanoic acid], the “Time to appearance of convulsive seizure” value in data set [1] (3 mg/kg oral) is 204 ± 7 min; in data set [1] (10 mg/kg oral) it was 220 ± 9 min. Besides, the “suppression of the release of O2- (in words)” value in data set [2] (0.001-0.1 mM) was “suppressed the release of O2^- in a concentration-dependent manner”. Also, in data set [2] (Cavia porcellus, Leukocyte, 0.001 mM), 1 µM produced 12% inhibition. Testing at 10 µM in data set [2] (Cavia porcellus, Leukocyte, 0.01 mM) gave an inhibition of 56%. Besides, in data set [2] (Cavia porcellus, Leukocyte, 0.1 mM), the inhibition (commonly the relative decrease from the control value, in per cent) at 100 µM turned out to be 93%.

With `CC1=C(C)C(=O)C(C(CCCCCC(=O)O)c2ccc(C)cc2)=C(C)C1=O` (stereo not shown) [Compound No. 93], the “Acute toxicity (number of dead animals/number of animals used)” value with mice of ICR breed is on record as 0/5.
